{"source": "patent US11389449B2", "about": "“Treatment of metabolic syndrome with an sGC stimulator” (Cyclerion Therapeutics, Inc., priority 2017, dated 2022)", "key": {"[1]": {"tested_on": "patients with stable type 2 diabetes and hypertension", "assay": "Open-label Phase 2a trial of escalating doses (NCT02906579), metabolic assessments and tolerability", "format": "in vivo, human", "settings": "for Change Serum Insulin, Mean / Change Serum Insulin, Median: fasting", "source_text": "The primary objectives of this clinical study (ClinicalTrials.gov Identifier: NCT02906579) were to assess the acute effects of escalating doses of Compound I on endothelial function (using EndoPAT™—Itamar Medical; Caesarea, Israel- to measure fingertip small vessel pulse volume), blood pressure, heart rate/pulse, safety and tolerability in patients with Type 2 diabetes and a history of hypertension. Patients in this trial were on stable medications for glucose control (blood glucose lowering medication) and hypertension (including an ARB or an ACEi). Secondary measurements included assessment of fasting glucose levels, fasting insulin levels, hemoglobin A1C (HbA1C) levels, serum cholesterol levels, serum triglyceride levels, BMI and body weight.\nAllocation: non-randomized; Intervention Model: single group assignment; Masking: non (open-label), Primary purpose: treatment. Single cohort of 11 patients confined to unit. Single clinical site.\nClinic Period: The Clinic Period began at Check-in on Day-1 and ended at Discharge on Day 19. Patients who met eligibility criteria based on Screening Visit assessments were admitted to the Study Center on Day-1 for procedures to confirm eligibility and were confined to the Study Center until Discharge on Day 19. Patients received a standard diet for diabetics. On Days 1 to 18, following an overnight fast of ≥8 hours, eligible patients received once-daily study drug. Safety (adverse event [AE] collection, vital signs, fasting glucose, serum insulin, electro cardiograms [ECGs]) and pharmacokinetic (PK) assessments, including blood collections, were performed at pre-specified times daily (see Schedule of Events). Pharmacodynamic assessments was performed on a 3-day cycle that repeated for each of the 6 dosing cycles (see FIG. 29 and Schedule of Events): the first day included supine and standing cuff BP and pulse measurements; the second day include ambulatory BP monitoring (ABPM), and the third day will include EndoPAT assessments of endothelial function. In addition, blood samples were collected for optional determination of exploratory biomarkers, including metabolic markers associated with metabolic syndrome (see Schedule of Events). On Day 19, after assessments were completed, patients were discharged from the Study Center at the Investigator's discretion. Patients were rescreened should they discontinue in the Screening Period due to visit window deviations or other administrative reasons. In addition, laboratory values, ECG values, or BPs that were outside the range specified in the protocol were repeated to confirm eligibility during the screening period at the Investigator's discretion after consultation with the Medical Monitor.\nEscalating single doses (in 3-day cycles) of 10, 20, 30, 40 or 50 mg of Compound I. Compound I has previously been described in WO2014144100. Metabolic parameters, including fasting serum glucose levels, fasting serum insulin levels, hemoglobin A1C (HhA1C) levels, serum lipid levels and body weight, were determined on the second day of each 3-day cycle.\nFasting glucose (mg/dL) was measured in serum both enzymatically. Insulin (pmol/L) was measured by ECLIA. Cholesterol (mg/dL) was measured enzymatically. Triglycerides (mg/dL) were measured enzymatically. HbA1c (%) was measured using Roche Tina Quant.\nCompound I was administered as multiples of a 5-mg oral tablet dosage form. Placebo was administered as multiples of a 5 mg tablet. Compound I was formulated as a spray dried dispersion formulation as described in WO2017095697.\nPatients received orally administered study drug at approximately the same time (±15 minutes) every day in the morning (8 to 10 AM), after an overnight fast of at least 8 hours. Patients took multiple tablets together as needed to complete the total dose. […]"}, "[2]": {"tested_on": "ZSF1 obese rats", "assay": "Fasting serum insulin in ZSF1 rats (Rat Insulin ELISA)", "format": "in vivo", "source_text": "Blood and 24-hour urine samples were obtained from all animals at day 0 (15 weeks of age; prior to the initiation of enalapril treatment). Animals in Groups 3, 7, 8 and 9 were placed on drinking water containing enalapril and kept on Purina 5008 rodent chow (C13000). Animals in Group 1, 2, 4, 5 and 6 were kept on Purina 5008 rodent chow and drinking water. Ten days after the initiation of enalapril treatment, blood and 24-hour urine samples were collected from all animals. After day 10 blood and urine collections, animals in Groups 4, 5 and 6 received Compound I at 1, 3 and 10 mg/kg/day, respectively for 11 weeks. In addition to enalapril treatment, animals in Groups 7, 8 and 9 received Compound I at 1, 3 and 10 mg/kg/day, respectively for an additional 11 weeks.\n10 weeks after the initiation of Compound I treatment, animals (27 weeks of age) were fasted for 18 hours. Serum samples were collected for the measurement of fasting insulin levels. Serum insulin levels were determined using the Rat Insulin ELISA kit (Cat #ELR-Insulin, RayBiotech, Inc.)\nThe data are expressed as mean±SEM. […] One-tailed tests were used for comparison of variables. Statistical significance is indicated by P values less than 0.05."}, "[3]": {"settings": "after escalation 10 to 50 mg over 15 days"}}}
{"smiles": "OC(CNc1nc(-c2cc(-c3ccon3)n(Cc3ccccc3F)n2)ncc1F)(C(F)(F)F)C(F)(F)F", "note": "[Compound I]", "values": [{"measurement": "Change Serum Insulin, Mean", "setting": "[1]; 10 mg once daily cycle", "value": 0.2, "unit": "µIU/mL"}, {"measurement": "Change Serum Insulin, Median", "setting": "[1]; 10 mg once daily cycle", "value": -0.5, "unit": "µIU/mL"}, {"measurement": "Change Serum Insulin, Mean", "setting": "[1]; 20 mg once daily cycle", "value": -0.4, "unit": "µIU/mL"}, {"measurement": "Change Serum Insulin, Median", "setting": "[1]; 20 mg once daily cycle", "value": 0.1, "unit": "µIU/mL"}, {"measurement": "Change Serum Insulin, Mean", "setting": "[1]; 30 mg once daily cycle", "value": -2.61, "unit": "µIU/mL"}, {"measurement": "Change Serum Insulin, Median", "setting": "[1]; 30 mg once daily cycle", "value": -2, "unit": "µIU/mL"}, {"measurement": "Change Serum Insulin, Mean", "setting": "[1]; 40 mg once daily cycle", "value": -2.49, "unit": "µIU/mL"}, {"measurement": "Change Serum Insulin, Median", "setting": "[1]; 40 mg once daily cycle", "value": -1.9, "unit": "µIU/mL"}, {"measurement": "Change Serum Insulin, Mean", "setting": "[1]; 50 mg once daily cycle", "value": -2.7, "unit": "µIU/mL"}, {"measurement": "Change Serum Insulin, Median", "setting": "[1]; 50 mg once daily cycle", "value": -0.7, "unit": "µIU/mL"}, {"measurement": "reduction in mean fasting glucose level between placebo cycle (day 2) and end of treatment", "setting": "[1]; after escalation 10, 20, 30, 40, 50 mg single oral daily dose", "value": 20, "unit": "%"}, {"measurement": "reduction in mean cholesterol level between baseline (day-1) and end of treatment", "setting": "[1]; [3]", "value": 23, "unit": "%"}, {"measurement": "reduction in serum TGs between day-1 (baseline) and day 19", "setting": "[1]; [3]", "value": "about 12%"}, {"measurement": "mean reduction of body weight", "setting": "[1]; by end of treatment day 19", "value": "about 3.5 kg"}, {"measurement": "mean serum TG level", "setting": "[1]; day 19", "value": 122, "unit": "mg/dL"}, {"measurement": "mean serum cholesterol level", "setting": "[1]; day 19", "value": 142, "unit": "mg/dL"}, {"measurement": "Mean fasting glucose level", "setting": "[1]; day 19 (end of treatment) after escalation 10 to 50 mg once daily", "value": 114, "unit": "mg/dL"}, {"measurement": "HbA1C mean reduction from baseline", "setting": "[1]; day 19, actual HbA1C reading", "value": 0.40, "unit": "%"}, {"measurement": "mean body weight relative to baseline (day-1)", "setting": "[1]; each dosage 10 to 50 mg, cumulative over dose escalation", "value": "decreased for all dosages"}, {"measurement": "change between mean serum cholesterol value on day 19 (end of treatment) and day 32", "setting": "[1]; follow-up after end of dosing", "value": "+43.3 mg/dL"}, {"measurement": "tolerability", "setting": "[1]; multiple dose escalation 10 to 50 mg once daily", "value": "well tolerated"}, {"measurement": "Fasting Insulin", "setting": "[2]; week 10, Compound I 1 mpk", "value": "15.7 ± 3.5", "unit": "μIU/mL"}, {"measurement": "Fasting Insulin", "setting": "[2]; week 10, Compound I 3 mpk", "value": "15.6 ± 2.7", "unit": "μIU/mL"}, {"measurement": "Fasting Insulin", "setting": "[2]; week 10, Compound I 10 mpk", "value": "11.7 ± 1.6", "unit": "μIU/mL"}]}
